# Source: patent US8901301B2, “Pyrrolo[2,3-]pyridine kinase inhibitors” (Plexxikon Inc., priority 2009, dated 2014)
# Experiments:
# Trk = Trk (Homo sapiens, UniProt P04629); assay: Biochemical inhibitory activity, other protein kinases: Trk; details: listing of the kinase means IC50 >1 μM
# mTor = mTor (Homo sapiens, UniProt P42345); assay: Biochemical inhibitory activity, other protein kinases: mTor; details: listing of the kinase means IC50 >1 μM
# PI3Kγ = PI3Kγ (Homo sapiens, UniProt P48736); assay: Biochemical inhibitory activity, other protein kinases: PI3Kγ; details: listing of the kinase means IC50 >1 μM
# Chain of PI3Kγ (P48736 whole entry, species assumed): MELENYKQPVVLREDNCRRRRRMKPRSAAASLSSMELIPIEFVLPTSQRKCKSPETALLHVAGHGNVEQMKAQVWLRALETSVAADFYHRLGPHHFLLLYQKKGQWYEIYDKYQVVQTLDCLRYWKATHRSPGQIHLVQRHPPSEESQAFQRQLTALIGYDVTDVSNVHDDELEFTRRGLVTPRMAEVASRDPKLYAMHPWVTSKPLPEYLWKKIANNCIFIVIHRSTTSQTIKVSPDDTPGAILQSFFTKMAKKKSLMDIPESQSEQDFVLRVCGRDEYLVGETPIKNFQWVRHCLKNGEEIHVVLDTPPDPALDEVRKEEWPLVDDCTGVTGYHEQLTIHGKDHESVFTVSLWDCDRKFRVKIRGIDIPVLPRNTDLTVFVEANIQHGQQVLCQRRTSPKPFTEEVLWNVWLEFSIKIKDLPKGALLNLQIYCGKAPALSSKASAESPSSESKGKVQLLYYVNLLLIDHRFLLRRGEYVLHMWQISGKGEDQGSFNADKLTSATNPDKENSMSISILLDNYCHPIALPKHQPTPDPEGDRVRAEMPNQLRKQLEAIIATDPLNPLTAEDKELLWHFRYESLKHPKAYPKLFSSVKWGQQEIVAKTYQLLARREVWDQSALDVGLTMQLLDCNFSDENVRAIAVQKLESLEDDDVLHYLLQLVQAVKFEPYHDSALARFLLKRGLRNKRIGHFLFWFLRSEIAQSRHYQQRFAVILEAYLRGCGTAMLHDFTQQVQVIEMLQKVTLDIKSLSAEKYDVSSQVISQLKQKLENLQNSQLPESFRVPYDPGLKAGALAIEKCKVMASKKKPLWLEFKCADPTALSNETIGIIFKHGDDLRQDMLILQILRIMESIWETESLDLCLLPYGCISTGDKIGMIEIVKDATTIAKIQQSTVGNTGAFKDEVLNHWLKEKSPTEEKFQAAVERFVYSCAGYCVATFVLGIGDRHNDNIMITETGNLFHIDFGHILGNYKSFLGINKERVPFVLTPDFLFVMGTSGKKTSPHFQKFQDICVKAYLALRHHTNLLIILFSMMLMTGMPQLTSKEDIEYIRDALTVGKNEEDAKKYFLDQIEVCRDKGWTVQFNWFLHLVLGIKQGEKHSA
# PI3Kδ = PI3Kδ (Homo sapiens, UniProt O00329); assay: Biochemical inhibitory activity, other protein kinases: PI3Kδ; details: listing of the kinase means IC50 >1 μM
# Chain of PI3Kδ (O00329 whole entry, species assumed): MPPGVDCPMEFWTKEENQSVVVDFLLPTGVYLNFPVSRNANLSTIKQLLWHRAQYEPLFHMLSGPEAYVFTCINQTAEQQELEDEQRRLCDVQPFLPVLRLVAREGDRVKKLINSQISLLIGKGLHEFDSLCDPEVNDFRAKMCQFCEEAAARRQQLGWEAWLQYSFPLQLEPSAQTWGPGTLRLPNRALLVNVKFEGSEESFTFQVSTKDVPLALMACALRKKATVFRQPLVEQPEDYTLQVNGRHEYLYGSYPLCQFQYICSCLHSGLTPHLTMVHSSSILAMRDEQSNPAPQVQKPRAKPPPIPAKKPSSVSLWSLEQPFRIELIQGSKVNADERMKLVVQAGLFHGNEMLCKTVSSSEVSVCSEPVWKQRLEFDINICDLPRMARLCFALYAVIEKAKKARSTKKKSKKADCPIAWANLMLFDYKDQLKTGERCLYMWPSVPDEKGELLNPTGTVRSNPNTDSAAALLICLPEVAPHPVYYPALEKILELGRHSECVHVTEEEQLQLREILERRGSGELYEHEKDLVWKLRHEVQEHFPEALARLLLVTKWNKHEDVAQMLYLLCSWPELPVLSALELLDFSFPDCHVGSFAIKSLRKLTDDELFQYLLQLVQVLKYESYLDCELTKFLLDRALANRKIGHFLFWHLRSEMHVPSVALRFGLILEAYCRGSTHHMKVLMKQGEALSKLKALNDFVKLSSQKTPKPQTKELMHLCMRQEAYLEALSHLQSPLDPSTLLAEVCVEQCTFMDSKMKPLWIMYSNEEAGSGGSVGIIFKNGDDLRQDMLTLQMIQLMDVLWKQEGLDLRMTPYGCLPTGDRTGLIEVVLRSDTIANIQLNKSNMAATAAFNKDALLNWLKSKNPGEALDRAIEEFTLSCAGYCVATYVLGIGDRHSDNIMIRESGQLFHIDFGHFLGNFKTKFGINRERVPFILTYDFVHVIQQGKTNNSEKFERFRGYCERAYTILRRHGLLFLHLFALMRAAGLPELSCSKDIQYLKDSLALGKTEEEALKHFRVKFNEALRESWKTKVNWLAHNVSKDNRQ
# Chain of PI3Kδ (P27986 whole entry partner, species assumed): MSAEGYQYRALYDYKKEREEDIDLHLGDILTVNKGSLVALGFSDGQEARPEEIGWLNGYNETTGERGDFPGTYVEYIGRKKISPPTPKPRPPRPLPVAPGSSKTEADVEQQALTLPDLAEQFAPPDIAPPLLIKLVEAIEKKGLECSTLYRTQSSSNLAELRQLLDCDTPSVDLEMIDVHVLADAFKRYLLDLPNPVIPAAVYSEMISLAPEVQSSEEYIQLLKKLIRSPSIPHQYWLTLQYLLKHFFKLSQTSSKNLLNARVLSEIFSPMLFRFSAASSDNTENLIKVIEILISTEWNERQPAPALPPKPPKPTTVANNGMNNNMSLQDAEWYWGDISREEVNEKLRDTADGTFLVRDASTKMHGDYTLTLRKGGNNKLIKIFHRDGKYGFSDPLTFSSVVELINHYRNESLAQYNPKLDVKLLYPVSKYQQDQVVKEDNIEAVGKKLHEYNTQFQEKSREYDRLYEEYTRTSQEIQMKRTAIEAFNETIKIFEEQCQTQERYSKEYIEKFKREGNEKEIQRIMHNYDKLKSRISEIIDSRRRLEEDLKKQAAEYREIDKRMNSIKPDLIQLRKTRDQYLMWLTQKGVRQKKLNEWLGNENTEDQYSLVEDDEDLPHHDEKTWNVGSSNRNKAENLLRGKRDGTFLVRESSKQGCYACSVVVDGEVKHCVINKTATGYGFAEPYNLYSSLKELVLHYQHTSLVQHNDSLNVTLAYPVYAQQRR
# Brk = Brk (Homo sapiens, UniProt Q13882); assay: Biochemical inhibitory activity, other protein kinases: Brk; details: listing of the kinase means IC50 <1 μM
# Chain of Brk (Q13882 whole entry, species assumed): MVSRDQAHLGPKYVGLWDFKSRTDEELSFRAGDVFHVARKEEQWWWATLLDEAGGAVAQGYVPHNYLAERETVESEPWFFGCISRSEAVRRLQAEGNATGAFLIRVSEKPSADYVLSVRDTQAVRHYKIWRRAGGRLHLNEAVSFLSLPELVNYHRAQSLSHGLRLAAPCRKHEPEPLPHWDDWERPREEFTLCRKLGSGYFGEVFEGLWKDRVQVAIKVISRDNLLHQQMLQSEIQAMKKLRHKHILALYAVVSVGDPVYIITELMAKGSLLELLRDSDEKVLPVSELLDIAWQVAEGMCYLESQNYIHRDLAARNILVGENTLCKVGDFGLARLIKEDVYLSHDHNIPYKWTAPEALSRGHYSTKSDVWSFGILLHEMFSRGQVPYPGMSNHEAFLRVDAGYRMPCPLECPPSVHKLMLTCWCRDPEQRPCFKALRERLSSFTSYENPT
# Jnk1 = Jnk1 (Homo sapiens, UniProt P45983); assay: Biochemical inhibitory activity, other protein kinases: Jnk1; details: listing of the kinase means IC50 >1 μM
# Chain of Jnk1 (P45983 whole entry, species assumed): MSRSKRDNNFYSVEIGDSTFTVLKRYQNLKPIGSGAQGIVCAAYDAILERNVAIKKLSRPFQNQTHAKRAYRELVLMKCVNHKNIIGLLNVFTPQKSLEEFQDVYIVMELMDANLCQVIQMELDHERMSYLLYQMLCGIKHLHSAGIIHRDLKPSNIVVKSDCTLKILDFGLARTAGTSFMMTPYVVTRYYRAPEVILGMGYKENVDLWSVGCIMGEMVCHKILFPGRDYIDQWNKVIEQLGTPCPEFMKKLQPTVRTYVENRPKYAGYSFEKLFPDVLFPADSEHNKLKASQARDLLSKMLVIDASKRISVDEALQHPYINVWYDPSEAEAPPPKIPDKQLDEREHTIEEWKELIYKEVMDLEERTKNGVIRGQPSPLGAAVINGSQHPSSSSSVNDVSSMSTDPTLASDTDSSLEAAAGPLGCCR
# PI3Kα = PI3Kα (Homo sapiens, UniProt P42336); assay: Biochemical inhibitory activity, other protein kinases: PI3Kα; details: listing of the kinase means IC50 >1 μM
# Itk = target: T1, Itk (Homo sapiens, UniProt Q08881); assay: Biochemical inhibitory activity, other protein kinases: Itk; details: listing of the kinase means IC50 >1 μM
# T1 sequence (Q08881 1-620): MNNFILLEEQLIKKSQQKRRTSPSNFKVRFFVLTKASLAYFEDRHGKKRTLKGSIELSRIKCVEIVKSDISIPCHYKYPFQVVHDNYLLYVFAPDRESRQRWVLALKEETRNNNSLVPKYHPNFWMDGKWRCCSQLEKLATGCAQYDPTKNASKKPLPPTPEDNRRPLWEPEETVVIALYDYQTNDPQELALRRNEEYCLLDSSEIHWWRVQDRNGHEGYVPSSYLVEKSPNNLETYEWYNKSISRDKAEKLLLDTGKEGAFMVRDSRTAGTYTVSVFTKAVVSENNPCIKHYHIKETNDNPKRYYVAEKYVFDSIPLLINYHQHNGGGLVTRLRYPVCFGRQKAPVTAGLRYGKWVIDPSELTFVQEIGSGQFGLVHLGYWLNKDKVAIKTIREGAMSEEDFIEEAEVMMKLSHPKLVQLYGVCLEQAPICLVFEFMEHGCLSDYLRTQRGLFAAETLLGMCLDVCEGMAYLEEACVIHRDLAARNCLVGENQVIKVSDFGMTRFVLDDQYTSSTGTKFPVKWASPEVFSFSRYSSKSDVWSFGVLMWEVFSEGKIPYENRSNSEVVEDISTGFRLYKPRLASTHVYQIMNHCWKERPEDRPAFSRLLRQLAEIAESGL
# TrkA = TrkA (Homo sapiens, UniProt P04629); assay: Biochemical inhibitory activity, other protein kinases: TrkA; details: listing of the kinase means IC50 >1 μM
# Chain of TrkA (P04629 33-796, species assumed): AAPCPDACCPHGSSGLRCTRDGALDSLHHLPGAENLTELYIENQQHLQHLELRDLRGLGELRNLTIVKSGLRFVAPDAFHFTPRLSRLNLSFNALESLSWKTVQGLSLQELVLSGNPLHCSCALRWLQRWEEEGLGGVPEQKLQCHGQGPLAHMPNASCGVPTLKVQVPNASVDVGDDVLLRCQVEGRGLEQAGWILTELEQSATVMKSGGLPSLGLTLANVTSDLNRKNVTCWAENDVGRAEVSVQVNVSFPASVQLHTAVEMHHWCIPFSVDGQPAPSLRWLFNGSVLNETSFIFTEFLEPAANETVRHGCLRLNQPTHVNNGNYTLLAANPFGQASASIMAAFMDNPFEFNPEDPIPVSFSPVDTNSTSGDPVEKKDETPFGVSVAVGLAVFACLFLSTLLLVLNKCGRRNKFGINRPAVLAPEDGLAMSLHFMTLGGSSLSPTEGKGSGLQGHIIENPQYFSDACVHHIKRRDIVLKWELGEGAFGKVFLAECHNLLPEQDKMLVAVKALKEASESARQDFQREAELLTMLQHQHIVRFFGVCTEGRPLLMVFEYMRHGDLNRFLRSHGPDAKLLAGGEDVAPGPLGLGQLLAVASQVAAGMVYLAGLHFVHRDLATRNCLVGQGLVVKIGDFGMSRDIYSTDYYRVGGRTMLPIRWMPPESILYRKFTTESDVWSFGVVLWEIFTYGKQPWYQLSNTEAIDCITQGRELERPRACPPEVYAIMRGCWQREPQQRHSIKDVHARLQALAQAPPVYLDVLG
# Ack1 = Ack1 (Homo sapiens, UniProt Q07912); assay: Biochemical inhibitory activity, other protein kinases: Ack1; details: listing of the kinase means IC50 <1 μM
# Flt1 = Flt1 (Homo sapiens, UniProt P17948); assay: Biochemical inhibitory activity, other protein kinases: Flt1; details: listing of the kinase means IC50 >1 μM
# Chain of Trk (P04629 33-796, species assumed): as above
SMILES,Kinase having IC50 of <1 μM (Brk),Kinase having IC50 of >1 μM (Jnk1),Kinase having IC50 of >1 μM (Itk),Kinase having IC50 of >1 μM (TrkA),other results
"CCCS(=O)(=O)Nc1ccc(F)c(C(=O)c2c[nH]c3ncc(-c4cnc(OC)nc4)cc23)c1F [Compound P-0001, propane-1-sulfonic acid {2,4-difluoro-3-[5-(2-methoxy-pyrimidin-5-yl)-1H-pyrrolo[2,3-b]pyridine-3-carbonyl]-phenyl}-amide]",Brk,Jnk1,Itk,–,Kinase having IC50 of >1 μM (Trk): Trk; Kinase having IC50 of >1 μM (mTor): mTor; Kinase having IC50 of >1 μM (PI3Kγ): PI3Kγ; Kinase having IC50 of >1 μM (PI3Kδ): PI3Kδ; Kinase having IC50 of >1 μM (PI3Kα): PI3Kα
"CCCS(=O)(=O)Nc1ccc(F)c(C(=O)c2c[nH]c3ncc(C#N)cc23)c1F [Compound P-0002, propane-1-sulfonic acid [3-(5-cyano-1H-pyrrolo[2,3-b]pyridine-3-carbonyl)-2,4-difluoro-phenyl]-amide]",Brk,–,Itk,TrkA,Kinase having IC50 of <1 μM (Ack1): Ack1; Kinase having IC50 of >1 μM (Flt1): Flt1
"CCCS(=O)(=O)Nc1cccc(C(=O)c2c[nH]c3ncc(C#N)cc23)c1F [Compound P-0003, propane-1-sulfonic acid [3-(5-cyano-1H-pyrrolo[2,3-b]pyridine-3-carbonyl)-2-fluoro-phenyl]-amide]",–,–,–,TrkA,–
"CN(C)S(=O)(=O)Nc1ccc(F)c(C(=O)c2c[nH]c3ncc(C#N)cc23)c1F [Compound P-0007, N,N-dimethylamino-sulfonic acid [3-(5-cyano-1H-pyrrolo[2,3-b]pyridine-3-carbonyl)-2,4-difluoro-phenyl]-amide]",–,Jnk1,Itk,–,–

# The next lines start with results.
Kinase having IC50 of <1 μM (Brk),Kinase having IC50 of >1 μM (Jnk1),Kinase having IC50 of >1 μM (Itk),Kinase having IC50 of >1 μM (TrkA),SMILES,other results
–,Jnk1,Itk,–,"N#Cc1cnc2[nH]cc(C(=O)c3c(F)ccc(NS(=O)(=O)c4cc(F)ccc4F)c3F)c2c1 [Compound P-0004, N-[3-(5-cyano-1H-pyrrolo[2,3-b]pyridine-3-carbonyl)-2,4-difluoro-phenyl]-2,5-difluoro-benzenesulfonamide]",–
–,Jnk1,Itk,–,"N#Cc1cnc2[nH]cc(C(=O)c3c(F)ccc(NS(=O)(=O)c4cccc(F)c4)c3F)c2c1 [Compound P-0005, N-[3-(5-cyano-1H-pyrrolo[2,3-b]pyridine-3-carbonyl)-2,4-difluoro-phenyl]-3-fluoro-benzenesulfonamide]",–
